Measurements published in publication PMC8922279, “Identification of β-Lactams Active against Mycobacterium tuberculosis by a Consortium of Pharmaceutical Companies and Academic Institutions” (ACS Infectious Diseases, 2022).
In brackets after ≈: the same amount, converted by molar mass.

What was measured:
[1] = in vitro; settings: beagle, dog, plasma
[2] = system: Caco-2 cells
[3] = male, CD-1, mouse, 2 h, 2 μM
[4] = system: E. coli; assay: Microbial spectrum, E. coli; assay type: cell-based, Escherichia coli
[5] = system: CYP1A2; assay type: in vitro ADME; settings: human, hepatocytes, 3 µM
Experimental: (§1) Metabolic stability and induction of human hepatocytes were performed as previously described.[71]

[6] = system: CYP2B6; assay type: in vitro ADME; settings: human, hepatocytes, 3 µM
Experimental: as §1

[7] = system: CYP3A5; assay type: in vitro ADME; settings: human, hepatocytes, 3 µM
Experimental: as §1

[8] = system: P. aeruginosa; assay: Microbial spectrum, P. aeruginosa; assay type: cell-based, Pseudomonas aeruginosa
[9] = in vitro; settings: CD-1, mouse, plasma, pH 7.4, % bound to plasma
[10] = in vivo; settings: female, CD-1, mouse
[11] = in vitro; settings: human, plasma, Plasma stability % Remaining
[12] = in vitro; settings: cynomolgus monkey, plasma, pH 7.4
[13] = system: S. aureus; assay: Microbial spectrum, S. aureus; assay type: cell-based, Staphylococcus aureus
[14] = system: wild-type Mtb H37Rv; assay type: in vivo, 129sv DHP-1 knockout mice
[15] = in vivo; settings: female, 129sv DHP-1 knockout, mouse, sc, 50 mg/kg
[16] = 2 h, 2 μM
[17] = system: plasma proteins; settings: 4 h, 2 μM, pH 7.4
[18] = physchem; settings: simulated gi fluid, pH 6.5, FaSSIF Stability, % remaining
[19] = target: CYP3A4 (Homo sapiens, UniProt P08684); assay: CYP3A4 inhibition
[20] = in vitro; settings: human
[21] = Metabolic stability, human; assay type: in vitro ADME
Experimental: as §1

[22] = in vivo; settings: DHP-1 knockout, mouse, sc, 300 mg/kg
[23] = in vitro; settings: monkey, plasma
[24] = 300 mg/kg sc, uninfected DHP-1 mice
[25] = in vitro; settings: male, CD-1, mouse, plasma, Plasma stability % Remaining
[26] = system: C. albicans; assay: Microbial spectrum, C. albicans; assay type: cell-based, Candida albicans
[27] = system: Mtb H37Rv; assay: MIC90 against nonreplicating (NR, 4-stress) Mtb H37Rv, with or without clavulanate; assay type: cell-based, Mycobacterium tuberculosis; settings: 4-stress nonreplicating, Table S4
[28] = system: WT Mtb H37Rv; assay: Colony-forming unit (CFU) assay, replicating WT Mtb H37Rv; assay type: cell-based, Mycobacterium tuberculosis
[29] = in vitro; settings: SD, rat, plasma, Plasma stability % Remaining
[30] = in vitro; settings: human, plasma, pH 7.4, % bound to plasma
[31] = physchem; settings: simulated gi fluid, pH 1.2

CYP3A4, sequence (P08684 whole entry, species assumed): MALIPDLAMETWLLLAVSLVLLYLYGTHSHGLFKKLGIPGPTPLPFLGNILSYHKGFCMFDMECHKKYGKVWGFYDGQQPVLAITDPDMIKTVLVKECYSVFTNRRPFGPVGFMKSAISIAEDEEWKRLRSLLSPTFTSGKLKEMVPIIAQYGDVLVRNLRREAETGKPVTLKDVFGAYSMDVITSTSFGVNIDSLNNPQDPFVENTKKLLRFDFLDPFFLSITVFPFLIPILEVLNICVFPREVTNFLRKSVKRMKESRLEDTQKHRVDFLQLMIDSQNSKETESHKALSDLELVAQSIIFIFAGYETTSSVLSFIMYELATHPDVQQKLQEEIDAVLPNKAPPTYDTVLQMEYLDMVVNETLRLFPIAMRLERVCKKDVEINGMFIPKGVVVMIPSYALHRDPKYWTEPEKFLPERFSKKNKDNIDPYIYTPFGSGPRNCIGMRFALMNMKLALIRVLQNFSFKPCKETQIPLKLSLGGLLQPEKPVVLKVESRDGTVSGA

O=C(Cc1ccc(C2=NCCN2)cc1)N[C@@H]1C(=O)N2C(C(=O)O)=C(CSc3nncs3)CS[C@H]12 [TBBL-0000316]
remaining at 2 h, 2 μM [1]: 77.3% | Caco-2 Rank Papp [2]: Low | Efflux Transporter Substrate [2]: Poor or no | Plasma stability % Remaining, Mouse [3]: 89% | MIC90 ([4]; Escherichia coli, E. coli): 31.8 µM (≈ 16.4 µg/mL) | E.coli R + CLAV (MIC90) ([4]; clavulanate 4 μg/mL, Table S4): 31.8 µM | induction of expression of CYP1A2 [5]: < 2 fold | induction of expression of CYP2B6 [6]: < 2 fold | induction of expression of CYP3A5 [7]: < 2 fold | MIC90 ([8]; Pseudomonas aeruginosa, P. aeruginosa): > 100 µM | P.aeruginosa R + CLAV (MIC90) ([8]; clavulanate 4 μg/mL, Table S4): > 100 µM | fraction unbound at 4 h, 2 μM [9]: 0.817 | AUC(0-t) ([10]; iv, 5 mg/kg): 37100 ng·h/mL | Vd ([10]; iv, 5 mg/kg): 0.11 L/kg | clearance ([10]; iv, 5 mg/kg): 2.25 mL/min/kg | half-life ([10]; iv, 5 mg/kg): 34.8 min | k el ([10]; iv, 5 mg/kg): 0.000333 s⁻¹ | AUC(0-t) ([10]; po, 25 mg/kg): 542 ng·h/mL | bioavailability ([10]; po, 25 mg/kg): 0.3% | remaining at 2 h, 2 μM [11]: 86.1% | fraction unbound at 4 h, 2 μM [12]: 0.335 | MIC90 ([13]; Staphylococcus aureus, S. aureus, with 4 μg/mL clavulanate): 0.86 µM | S.aureus R + CLAV (MIC90) ([13]; clavulanate 4 μg/mL, Table S4): 0.9 µM | Log10 CFU per mouse (lungs), Mean ([14]; 50 mg/kg sc bid + clavulanate 100 mg/kg po bid, days 9-15, lungs day 16, untreated day 16 mean 9.1): 8.2 Log10 CFU | reduction of lung CFU compared to untreated control mice ([14]; mouse, in vivo): 0.9 log10 | AUC(0-t) [15]: 23700 ng·h/mL | Cmax [15]: 17500 ng/mL | Tmax [15]: 30 min | Plasma stability % Remaining, Human [16]: 86% | % bound to plasma, CD-1 Mouse [17]: 18% | remaining at 6 h, 10 μM ([18]; 6h): 94.7% | remaining at 24 h, 10 μM ([18]; 24h): 84.2% | IC50 [19]: > 25 µM | Papp A→B at 120 min, 3 μM ([20]; Caco-2, pH 7.4): 0.31 ×10⁻⁶ cm/s | Papp B→A at 120 min, 3 μM ([20]; Caco-2, pH 7.4): 0.32 ×10⁻⁶ cm/s | Papp at 120 min, 3 µM ([20]; Caco-2, pH 7.4): 0.3 ×10⁻⁶ cm/s | efflux ratio at 120 min, 3 μM ([20]; Caco-2, pH 7.4): 1.06 | recovery at 120 min, 3 μM ([20]; Caco-2, pH 7.4, Caco-2 Mean Recovery % A to B): 104% | recovery at 120 min, 3 μM ([20]; Caco-2, pH 7.4, Caco-2 Mean Recovery % B to A): 110% | metabolic stability [21]: 5.4 μL/min/mg protein | metabolic stability 1/2 life [21]: 256 min | AUC(0-t) [22]: 60200 ± 11400 ng·h/mL | Cmax [22]: 28700 ± 866 ng/mL | Tmax [22]: 60 to 120 min | remaining at 2 h, 2 μM [23]: 114% | Tlast [24]: 2.0 to 4.0 h | remaining at 2 h, 2 μM [25]: 88.5% | MIC90 ([26]; Candida albicans, C. albicans): > 100 µM | C.albicans R (MIC90) ([26]; no clavulanate, Table S4): > 100 µM | Mtb H37Rv NR + CLAV (MIC90) ([27]; clavulanate 4 μg/mL): > 100 µM | Mtb H37Rv NR (MIC90) ([27]; no clavulanate): > 100 µM | reduction in CFU ([28]; daily dosing for 5 days with 4 μg/mL clavulanate, at ≥1 μM): 3–4 log10 | reduction in CFU ([28]; single dose at 10 μM, one-week exposure, 4 μg/mL clavulanate): 3.5 log10 | remaining at 2 h, 2 μM [29]: 85.9% | fraction unbound at 4 h, 2 μM [30]: 0.619 | remaining at 1 h, 10 μM [31]: 83.7% | remaining at 24 h, 10 μM [31]: 0.45%
